Assay results from US11352330B2, “Phenoxymethyl derivatives” (Hoffmann-La Roche Inc., priority 2015, dated 2022).

Molecular target: human ATX (Homo sapiens (Human), UniProt Q13822)
Test: Human ATX enzyme inhibition assay (fluorescence quenching, MR121 substrate)
Format: biochemical
Details: human His-tagged ATX 30 nM, MR121 substrate 1 μM, 30° C.
Procedure: Human ATX Enzyme Inhibition Assay
ATX inhibition was measured by a fluorescence quenching assay using a specifically labeled substrate analogue (MR121 substrate). To obtain this MR121 substrate, BOC and TBS protected 6-amino-hexanoic acid (R)-3-({2-[3-(2-{2-[2-(2-amino-ethoxy)-ethoxy]-ethoxy}-ethoxy)-propionylamino]-ethoxy}-hydroxy-phosphoryloxy)-2-hydroxy-propyl ester (Ferguson et al., Org Lett 2006, 8 (10), 2023) was labeled with MR121 fluorophore (CAS 185308-24-1, 1-(3-carboxypropyl)-11-ethyl-1,2,3,4,8,9,10,11-octahydro-dipyrido[3,2-b:2′,3′-i]phenoxazin-13-ium) on the free amine of the ethanolamine side and then, after deprotection, subsequently with tryptophan on the side of the aminohexanoic acid.
Assay working solutions were made as follows:
Assay buffer (50 mM Tris-HCl, 140 mM NaCl, 5 mM KCl, 1 mM CaCl2, 1 mM MgCl2, 0.01% Triton-X-100, pH 8.0;
ATX solution: ATX (human His-tagged) stock solution (1.08 mg/mL in 20 mM bicine, pH 8.5, 0.15 M NaCl, 10% glycerol, 0.3% CHAPS, 0.02% NaN3), diluted to 1.4-2.5× final concentration in assay buffer;
MR121 substrate solution: MR121 substrate stock solution (800 μM MR121 substrate in DMSO), diluted to 2-5× final concentration in assay buffer.
Test compounds (10 mM stock in DMSO, 8 μL) were obtained in 384 well sample plates (Corning Costar #3655) and diluted with 8 μL DMSO. Row-wise serial dilutions were made by transferring 8 μL cpd solution to the next row up to row O. The compound and control solutions were mixed five times and 2 μL were transferred to 384 well assay plates (Corning Costar #3702). Then, 15 μL of 41.7 nM ATX solution was added (30 nM final concentration), mixed five times and then incubated for 15 minutes at 30° C. 10 μL of MR121 substrate solution was added (1 μM final concentration), mixed 30 times and then incubated for 15 minutes at 30° C.

Structure (SMILES)	IC50 [nM]
Cc1cc(OCc2n[nH]c(=O)n2C)c(-c2cc(C(=O)N(C)CC3CC3)ccc2F)cc1Cl [Example B70]	4
Cc1cc(OCc2n[nH]c3nc(OCCO)ccc23)c(C(C)(C)C)cc1Cl [Example D13, 2-[[3-[(2-t-Butyl-4-chloro-&-methylphenoxy)methyl]-1H-pyrazolo[3,4-b]pyridin-6-yl]oxy]ethanol]	13200
COC(=O)c1cccc(-c2cc(Cl)c(C)cc2OCc2n[nH]c(=O)n2C)c1 [Example B42, Methyl 3-[5-chloro-4-methyl-2-[(4-methyl-5-oxo-1H-1,2,4-triazol-3-yl)methoxy]phenyl]benzoate]	21
Cc1cc(OCc2n[nH]c(=O)n2C)c(-c2cc(OCC(=O)N(C)C)ccc2F)cc1Cl [Example B75]	10
Cc1cc(OCc2n[nH]c(=O)n2C)c(C2CCCCC2)cc1Cl [Example A20]	8
Cc1cc(OCc2n[nH]c(=O)n2C)c(-c2cc(C#N)ccc2OC(F)(F)F)cc1Cl [Example B86]	49
Cc1cc(C(C)(C)C)c(OCc2ccc(=O)[nH]n2)cc1C#N [Example C13]	40
Cc1cc(OCc2n[nH]c3ncccc23)c(-c2cccc(C(=O)N3CCOCC3)c2)cc1Cl [Example D17, [3-[5-Chloro-4-methyl-2-(1H-pyrazolo[3,4-b]pyridin-3-ylmethoxy)phenyl]phenyl]-morpholin-4-ylmethanone]	2
Cc1cc(OCc2n[nH]c(=O)n2C)c(-c2cccc(C#N)c2)cc1Cl [Example B5]	3
Cc1cc(OCc2n[nH]c(=O)n2C)c(-c2cc(CN(C)C(=O)C3CC3)ccc2F)cc1Cl [Example B80]	5
COc1ncccc1-c1cc(Cl)c(C)cc1OCc1n[nH]c2c1CCN(C(C)=O)C2 [Example E8, 1-(3-((4-Chloro-2-(2-methoxypyridin-3-yl)-5-methylphenoxy)methyl)-4,5-dihydro-1H-pyrazolo[3,4-c]pyridin-6(7H)-yl)ethanone]	69
Cc1cc(OCc2n[nH]c(=O)n2C)c(-c2cc(C(=O)N3CCOCC3)ccc2F)cc1Cl [Example B40]	15
Cn1c(COc2ccc(S(C)(=O)=O)cc2C(C)(C)C)n[nH]c1=O [Example A15]	230
Cc1cc(OCc2n[nH]c(=O)n2C)c(-c2cc(OCC3CCOCC3)ccc2F)cc1Cl [Example B72]	10
Cc1cc(OCc2n[nH]c(=O)n2C)c(-c2ccnn2C)cc1Cl [Example B30]	467
Cn1c(COc2ccc(-c3ncc[nH]3)cc2C(C)(C)C)n[nH]c1=O [Example A32, 3-[[2-tert-butyl-4-(1H-imidazol-2-yl)phenoxy]methyl]-4-methyl-1H-1,2,4-triazol-5-one]	3770
Cc1cc(OCc2cc[nH]n2)c(C(C)(C)C)cc1Cl [Example F1, 3-((2-tert-Butyl-4-chloro-5-methylphenoxy)methyl)-1H-pyrazole]	27
CC(C)(C)c1cc(Cl)c(F)cc1OCc1n[nH]c2nc(F)ccc12 [Example D12]	1
Cc1cc(OCc2n[nH]c(=O)n2C)c(-c2cc(C(=O)N(C)CCO)ccc2F)cc1Cl [Example B64]	21
Cc1cc(OCc2n[nH]c3ncccc23)c(-c2cccc(C(=O)N(C)C)c2)cc1Cl [Example D18]	17
Cc1cc(OCc2n[nH]c3ccccc23)c(C(C)(C)C)cc1S(C)(=O)=O [Example D10]	> 82000
N#Cc1cc(-c2ccccc2)c(OCc2ccc(=O)[nH]n2)cc1Cl [Example C12]	3
Cc1cc(OCc2n[nH]c(=O)n2C)c(-c2cc(C(=O)N3CCCCC3)ccc2F)cc1Cl [Example B69]	9
Cc1cc(OCc2n[nH]c(=O)n2C)c(C(C)C)cc1C#N [Example A12]	1
Cn1c(COc2cc(C#N)c(Cl)cc2C2CC2)n[nH]c1=O [Example A22]	173
Cn1c(COc2cc(Cl)c(C#N)cc2-c2ccccc2F)n[nH]c1=O [Example B84]	19
Cn1c(COc2cc(Cl)c(C#N)cc2-c2ccc(F)cc2)n[nH]c1=O [Example B32]	31
Cc1cc(OCc2n[nH]c(=O)n2C)c(-c2cccc(C(=O)Nc3ccccc3)c2)cc1Cl [Example B13]	6

Structure (SMILES)	IC50 [nM]
Cc1cc(OCc2n[nH]c(=O)n2C)c(-c2cc(CN3CC(=O)N(C)CC3=O)ccc2F)cc1Cl [Example B76]	11
Cc1cc(OCc2n[nH]c3nc(NCCO)ncc23)c(C(C)(C)C)cc1C#N [Example D35]	9
Cc1cc(OCc2n[nH]c3c2CN(C(=O)OC(C)(C)C)CC3)c(C(C)(C)C)cc1Cl [Example E1, tert-Butyl 3-((2-tert-butyl-4-chloro-5-methylphenoxy)methyl)-6,7-dihydro-1H-pyrazolo[4,3-c]pyridine-5(4H)-carboxylate]	746
Cc1cc(OCc2n[nH]c(=O)n2C(C)C)c(C(C)(C)C)cc1C#N [Example A26, 5-tert-Butyl-2-methyl-4-[(5-oxo-4-propan-2-yl-1H-1,2,4-triazol-3-yl)methoxy]benzonitrile]	12
Cc1cc(OCc2n[nH]c(=O)n2C)c(-c2cccc(Cl)n2)cc1Cl [Example B19]	65
COCCNC(=O)c1cccc(-c2cc(Cl)c(C)cc2OCc2n[nH]c(=O)n2C)c1 [Example B17]	16
Cc1cc(OCc2n[nH]c3nc(N(C)CCO)ncc23)c(C(C)(C)C)cc1Cl [Example D26, 2-[[3-[(2-tert-Butyl-4-chloro-5-methylphenoxy)methyl]-1H-pyrazolo[3,4-d]pyrimidin-6-yl]-methylamino]ethanol]	14
Cc1cc(OCc2n[nH]c(=O)n2C)c(-c2cc(C(=O)N(C)C3CC3)ccc2F)cc1Cl [Example B63]	10
Cc1cc(OCc2n[nH]c(=O)n2C)c(-c2cc(Cl)cc(C(N)=O)c2)cc1Cl [Example B14]	79
CC(=O)N1CCc2[nH]nc(COc3cc(C)c(Cl)cc3C(C)(C)C)c2C1 [Example E2, 1-(3-((2-tert-Butyl-4-chloro-5-methylphenoxy)methyl)-6,7-dihydro-1H-pyrazolo[4,3-c]pyridin-5(4H)-yl)ethanone]	41300
COc1ccc(C(C)C)cc1-c1cc(Cl)c(C)cc1OCc1n[nH]c(=O)n1C [Example B60]	11
Cc1cc(OCc2n[nH]c(=O)n2C)c(-c2cnc[nH]2)cc1Cl [Example B28, 3-[[4-Chloro-2-(1H-imidazol-5-yl)-5-methylphenoxy]methyl]-4-methyl-1H-1,2,4-triazol-5-one]	5940
Cc1cc(OCc2n[nH]c3nc(OCC(O)CO)ccc23)c(C(C)(C)C)cc1Cl (stereo not shown) [Example D15, 3-[[3-[(2-tert-Butyl-4-chloro-5-methylphenoxy)methyl]-1H-pyrazolo[3,4-b]pyridin-6-yl]oxy]propane-1,2-diol]	6
Cc1cc(OCc2n[nH]c3ncccc23)c(-c2ccno2)cc1Cl [Example D5]	1
Cn1c(COc2cc(Cl)c(C#N)cc2-c2cc(C(F)(F)F)ccc2F)n[nH]c1=O [Example B96]	37
COC(=O)CCNC(=O)c1cccc(-c2cc(Cl)c(C)cc2OCc2n[nH]c(=O)n2C)c1 [Example B44, Methyl 3-[[3-[5-chloro-4-methyl-2-[(4-methyl-5-oxo-1H-1,2,4-triazol-3-yl)methoxy]phenyl]benzoyl]amino]propanoate]	13
Cn1c(COc2cc(C(N)=O)ccc2C(C)(C)C)n[nH]c1=O [Example A25]	958
CC(C)(C)c1cc(S(C)(=O)=O)ccc1OCc1n[nH]c2ccccc12 [Example D1]	245000
Cc1cc(OCc2n[nH]c(=O)n2C)c(-c2cccc(C(=O)NCC(=O)O)c2)cc1Cl [Example B48]	192
CC(C)(C)c1cc(Cl)c(F)cc1OCc1n[nH]c2cccnc12 [Example D25]	18
Cc1cc(OCc2n[nH]c(=O)n2C)c(C2CCC2)cc1Cl [Example A31]	19
Cc1cc(OCc2n[nH]c(=O)n2C)c(-c2ncco2)cc1Cl [Example B29, 3-[[4-Chloro-5-methyl-2-(1,3-oxazol-2-yl)phenoxy]methyl]-4-methyl-1H-1,2,4-triazol-5-one]	78
Cc1cc(OCc2n[nH]c(=O)n2C)c(-c2ccccc2)cc1Cl [Example B1, 3-[(4-Chloro-5-methyl-2-phenylphenoxy)methyl]-4-methyl-1H-1,2,4-triazol-5-one]	3
CC(C)(C)c1cc(Cl)c(C#N)cc1OCc1n[nH]c2cnccc12 [Example D50]	1
CN(C)C(=O)c1cccc(-c2cc(C#N)c(Cl)cc2OCc2n[nH]c(=O)n2C)c1 [Example B39]	93
Cc1cc(OCc2n[nH]c(=O)n2C)c(-c2cc(C(=O)N(C)C3CCCC3)ccc2F)cc1Cl [Example B66]	7
CC(C)(C)c1cc(Cl)c(C#N)cc1OCc1n[nH]c2ncccc12 [Example D52]	2
